This experiment has as its target G-protein coupled receptor 6 (Homo sapiens, UniProt P46095). Nature of the experiment: Modulator activity at GPR6 receptor (unknown origin) expressed in CHO-K1 cells assessed as inhibition of constitutive cAMP activity incubated for 45 mins by Eu-cAMP tracer based HTRF Ultra cAMP assay. The class given is functional, cell-based. A general note: Time-resolved FRET reads energy transfer from a long-lived donor to a nearby acceptor.

Molecules are shown by their SMILES.

Experimental findings from ChEMBL document CHEMBL4418317, “Piperidinyl- and piperazinyl-substituted heteroaromatic carboxamides as modulators of gpr6” (2018) are described below.

Sequence of G-protein coupled receptor 6 (P46095 whole entry): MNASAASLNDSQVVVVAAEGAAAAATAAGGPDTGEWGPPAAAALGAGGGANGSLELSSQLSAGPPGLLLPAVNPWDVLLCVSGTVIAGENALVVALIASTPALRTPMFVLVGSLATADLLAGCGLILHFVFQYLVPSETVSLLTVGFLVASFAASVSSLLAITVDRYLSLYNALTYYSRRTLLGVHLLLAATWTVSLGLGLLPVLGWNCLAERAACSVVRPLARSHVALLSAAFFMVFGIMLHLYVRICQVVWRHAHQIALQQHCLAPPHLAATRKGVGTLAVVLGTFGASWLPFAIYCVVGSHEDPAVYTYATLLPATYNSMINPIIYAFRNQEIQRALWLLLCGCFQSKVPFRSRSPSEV

As to `Cn1cccc(C(=O)Nc2cc(C#N)ccc2N2CCC(Oc3cc(F)cc(F)c3)CC2)c1=O`, the EC50 (commonly the concentration that produces a half-maximal response) was 2000 nM. The result for `Cc1nc(C(=O)Nc2cc(C#N)ccc2N2CCC(Oc3ccc(F)cc3F)CC2)no1` reads 2000 nM; that for `N#Cc1ccc(N2CCC(Oc3ccc(F)cc3F)CC2)c(NC(=O)c2cccn(Cc3ccccc3)c2=O)c1`, 2000 nM.
